Experimental data reported in the supplement of paper PMC11061612.

How the values were obtained:
Experiment in all cases: Bliss excess, mean over the matrix (fraction); higher = more synergy
[1] = system: CHSA8926 (Chondrosarcoma)
Summary of the method: (§1)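 After 24 hours at 37°C and 5% CO2 in 1536-well plates, cells in DMEM/F12 or RPMI plus 10% FBS received two-drug dose matrices for 72 hours. Viability came from CellTiter-Glo 2.0 luminescence and was scaled as inhibition, anchored at 0 by vehicle wells and at 1 by blank wells. Combination Emax is taken as the second-highest inhibition in the matrix, and Bliss excess as the observed combination effect less EA + EB − EA·EB, with EA and EB the single-agent effects.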

[2] = system: CW-2 (Colorectal Carcinoma)
Summary of the method: as §1

[3] = system: G-361 (Melanoma)
Summary of the method: as §1

[4] = system: H9 (T-Cell Non-Hodgkin's Lymphoma)
Summary of the method: as §1

[5] = system: HCC1187 (Breast Carcinoma)
Summary of the method: as §1

[6] = system: JHH-4 (Hepatocellular Carcinoma)
Summary of the method: as §1

[7] = system: KP-3 (Pancreatic Carcinoma)
Summary of the method: as §1

[8] = system: KYSE-270 (Esophageal Squamous Cell Carcinoma)
Summary of the method: as §1

[9] = system: MOLM-13 (Acute Myeloid Leukemia)
Summary of the method: as §1

[10] = system: NCCIT (Other Solid Carcinomas)
Summary of the method: as §1

[11] = system: NCI-H2731 (Mesothelioma)
Summary of the method: as §1

[12] = system: NCI-H3122 (Lung Adenocarcinoma)
Summary of the method: as §1

[13] = system: NCI-H526 (Small Cell Lung Carcinoma)
Summary of the method: as §1

[14] = system: RPMI-8226 (Plasma Cell Myeloma)
Summary of the method: as §1

[15] = system: SK-GT-2 (Gastric Carcinoma)
Summary of the method: as §1

[16] = system: SK-GT-4 (Esophageal Adenocarcinoma)
Summary of the method: as §1

[17] = system: ST486 (Burkitt's Lymphoma)
Summary of the method: as §1

[18] = system: SU-DHL-5 (B-Cell Non-Hodgkin's Lymphoma)
Summary of the method: as §1

[19] = system: T-T (Esophageal Squamous Cell Carcinoma)
Summary of the method: as §1

Compound: NC1(C(=O)N[C@@H](CCO)c2ccc(Cl)cc2)CCN(c2ncnc3[nH]ccc23)CC1 [Capivasertib] + C[C@@H]1COCCN1C2=NC(=NC(=C2)C3(CC3)[S@](=N)(=O)C)C4=C5C=CNC5=NC=C4 [AZD6738] (first compound max 10 µM, 7x7, partner max 10 µM)
- Bliss excess [1]: -0.0179
- Bliss excess [2]: -0.0298
- Bliss excess [3]: -0.0397
- Bliss excess [4]: 0.0057
- Bliss excess [5]: -0.0292
- Bliss excess [6]: 0.0086
- Bliss excess [7]: -0.0499
- Bliss excess [8]: -0.0847
- Bliss excess [9]: -0.02
- Bliss excess [10]: -0.0139
- Bliss excess [11]: -0.0267
- Bliss excess [12]: -0.0758
- Bliss excess [13]: -0.0193
- Bliss excess [14]: -0.0344
- Bliss excess [15]: -0.001
- Bliss excess [16]: -0.0871
- Bliss excess [17]: -0.0785
- Bliss excess [18]: 0.0087
- Bliss excess [19]: -0.0452

Compound: NC1(C(=O)N[C@@H](CCO)c2ccc(Cl)cc2)CCN(c2ncnc3[nH]ccc23)CC1 [Capivasertib] + COc1nnc2ccc(N3CCC(c4ccc(OCCN5CCN(C)C(=O)[C@H]5C)cc4)CC3)nn12 [AZD5153] (first compound max 10 µM, 7x7, partner max 1 µM)
- Bliss excess [1]: 0.0617
- Bliss excess [2]: 0.0459
- Bliss excess [3]: 0.0218
- Bliss excess [4]: -0.0047
- Bliss excess [5]: 0.0491
- Bliss excess [6]: 0.0028
- Bliss excess [7]: 0.0226
- Bliss excess [8]: 0.124
- Bliss excess [9]: 0.0145
- Bliss excess [10]: 0.0382
- Bliss excess [11]: -0.0012
- Bliss excess [12]: -0.0131
- Bliss excess [13]: -0.0213
- Bliss excess [14]: 0.0244
- Bliss excess [15]: 0.0448
- Bliss excess [16]: -0.0204
- Bliss excess [17]: -0.0552
- Bliss excess [18]: -0.0179
- Bliss excess [19]: -0.0365

Compound: NC1(C(=O)N[C@@H](CCO)c2ccc(Cl)cc2)CCN(c2ncnc3[nH]ccc23)CC1 [Capivasertib] + Cn1cnc2c(F)c(Nc3ccc(Br)cc3Cl)c(C(=O)NOCCO)cc21 [Selumetinib] (first compound max 10 µM, 7x7, partner max 10 µM)
- Bliss excess [1]: 0.034
- Bliss excess [2]: -0.0035
- Bliss excess [3]: 0.0429
- Bliss excess [4]: 0.0271
- Bliss excess [5]: 0.0534
- Bliss excess [6]: -0.0762
- Bliss excess [7]: 0.0087
- Bliss excess [8]: 0.0691
- Bliss excess [9]: 0.0677
- Bliss excess [10]: 0.059
- Bliss excess [11]: -0.0115
- Bliss excess [12]: 0.092
- Bliss excess [13]: 0.0296
- Bliss excess [14]: 0.0411
- Bliss excess [15]: 0.063
- Bliss excess [16]: -0.0373
- Bliss excess [17]: 0.0217
- Bliss excess [18]: 0.0547
- Bliss excess [19]: 0.095

Compound: NC1(C(=O)N[C@@H](CCO)c2ccc(Cl)cc2)CCN(c2ncnc3[nH]ccc23)CC1 [Capivasertib] + CC(=O)c1c(C)c2cnc(Nc3ccc(N4CCNCC4)cn3)nc2n(C2CCCC2)c1=O [Palbociclib] (first compound max 10 µM, 7x7, partner max 10 µM)
- Bliss excess [1]: -0.0171
- Bliss excess [2]: 0.0329
- Bliss excess [3]: -0.0381
- Bliss excess [4]: -0.0671
- Bliss excess [5]: 0.0279
- Bliss excess [6]: -0.0242
- Bliss excess [7]: -0.0372
- Bliss excess [8]: -0.0135
- Bliss excess [9]: -0.0098
- Bliss excess [10]: 0.0183
- Bliss excess [11]: -0.0008
- Bliss excess [12]: 0.0266
- Bliss excess [13]: -0.0331
- Bliss excess [14]: 0.01
- Bliss excess [15]: 0.0012
- Bliss excess [16]: 0.0029
- Bliss excess [17]: -0.0616
- Bliss excess [18]: 0.0287
- Bliss excess [19]: -0.0221

Compound: CC(=O)c1c(C)c2cnc(Nc3ccc(N4CCNCC4)cn3)nc2n(C2CCCC2)c1=O [Palbociclib] + CC1(C)CCC(CN2CCN(c3ccc(C(=O)NS(=O)(=O)c4ccc(NCC5CCOCC5)c([N+](=O)[O-])c4)c(Oc4cnc5[nH]ccc5c4)c3)CC2)=C(c2ccc(Cl)cc2)C1 [Venetoclax] (first compound max 10 µM, 7x7, partner max 1 µM)
- Bliss excess [1]: -0.0232
- Bliss excess [2]: 0.0067
- Bliss excess [3]: 0.016
- Bliss excess [4]: -0.0394
- Bliss excess [5]: -0.0079
- Bliss excess [6]: -0.0003
- Bliss excess [7]: -0.0533
- Bliss excess [8]: -0.0349
- Bliss excess [9]: 0.04
- Bliss excess [10]: -0.0412
- Bliss excess [11]: -0.0002
- Bliss excess [12]: -0.0335
- Bliss excess [13]: -0.0033
- Bliss excess [14]: 0.0461
- Bliss excess [15]: -0.0342
- Bliss excess [16]: -0.0437
- Bliss excess [17]: -0.0755
- Bliss excess [18]: -0.0201
- Bliss excess [19]: -0.027

Compound: NC1(C(=O)N[C@@H](CCO)c2ccc(Cl)cc2)CCN(c2ncnc3[nH]ccc23)CC1 [Capivasertib] + CC(C)n1c(=O)n(C)c2cnc3cc(F)c(-c4ccc(OCCCN5CCCCC5)nc4)cc3c21 [AZD1390] (first compound max 10 µM, 7x7, partner max 0.3 µM)
- Bliss excess [1]: -0.111
- Bliss excess [2]: -0.0469
- Bliss excess [3]: -0.0344
- Bliss excess [4]: -0.0341
- Bliss excess [5]: -0.0424
- Bliss excess [6]: -0.0504
- Bliss excess [7]: -0.0596
- Bliss excess [8]: -0.0296
- Bliss excess [9]: -0.067
- Bliss excess [10]: -0.0628
- Bliss excess [11]: -0.0169
- Bliss excess [12]: -0.0304
- Bliss excess [13]: 0.0062
- Bliss excess [14]: -0.0096
- Bliss excess [15]: -0.0342
- Bliss excess [16]: -0.0586
- Bliss excess [17]: -0.0363
- Bliss excess [18]: -0.0114
- Bliss excess [19]: 0.0071
